Data as given in patent US6432939B1, “17a-hydroxy-4-androstene-3-one and derivatives thereof” (priority 1999, dated 2002).

Key:
Sertoli cells = experiment: inhibin-B secretion by Sertoli cells (inhibin-B dimer assay, Serotec); assay type: cell-based, Wistar rats
Description: The in-vitro stimulating effect on inhibin-B generation was measured using inhibin-B dimer assays by Serotec, Oxford, UK. […] The difference between the released inhibin-B quantity with and without the test substance expresses the efficacy of the respective test substance.
The substances were tested for their stimulating effect on inhibin-B secretion in an in-vitro model using Sertoli cells originating from Wistar rats and cultivated for up to 4 days.
Wistar rats that were 18 days old were killed using CO2; their testicles were collected and mechanically chopped up using a surgical knife. The resulting cell pulp was enzymatically disintegrated with collagenase II, hyaluronidase, and DNase using the following method: The cell pulp was digested for 15 minutes at 37° C. in 20 ml of Dulbecco's Modified Essential Medium (DMEM) containing 20 mg of collagenase II; subsequently, it was sedimented for 7 minutes at room temperature. The supernatant was discarded. The remaining pellet was resuspended in DMEM, then sedimented again for 7 minutes. The next steps were a second decomposition for 30 minutes at 37° C. in 20 ml of DMEM containing 40 mg of collagenase II, 40 mg of hyaluronidase, and 0.1 mg of DNase, and a centrifugation step at 500 rpm. After washing in DMEM without additives and another centrifugation step, the pellet was a third time enzymatically disintegrated for 30 minutes at 37° C. in 20 ml of DMEM containing 40 mg of collagenase II, 40 mg of hyaluronidase and 0.1 mg of DNase, then centrifuged at 1,000 rpm. The pellet was then resuspended, washed once in DMEM without additives, and finally sublimated with 100 U/ml of penicillin, 100 μg/ml of streptomycin, 5 μg/ml of human transferrin, 2 μg/ml of insulin, 50 ng/ml of vitamin A (all from Sigma Co.), 200 ng/ml of vitamin E (Merck Co.), and 3 mg/ml of cytosine arabinoside (Sigma Co.) (DMEM-Z) and sowed in 24-well microtiter plates. After 48 hours, the cultivated cells were given hypotonic treatment using 20 mM of Tris-HCl (pH 7.4) to remove residual gametes, then the medium was changed into DMEM-Z.
1 ml of biological sample containing 10^6 Sertoli cells in 990 ml of DMEM-Z and test substances at a concentration range from 0.1 nM to 1 μM, each dissolved in 10 μl of absolute ethanol (1% w/v of the total batch) was incubated for 48 hours at 34° C. and 5% CO2. The culture supernatant was then decanted from the cells, frozen at −20° C. and kept until the inhibin-B level was determined.
0.1 ml of culture supernatant was mixed with 0.05 ml of SDS of the inhibin-B assay (Serotec, Oxford, UK) in 1.8 ml Eppendorf reaction vessels and heated for 3 minutes to 100° C. After the batch had cooled down, 0.1 ml of assay diluent and 0.05 ml of a 6% H2O2 solution were added, intermixed, then incubated for 30 minutes at room temperature.
80 ml of the above reaction mixture and 80 ml of the 7 inhibin-B standards for creating a calibration curve contained in the assay were pipetted into the wells of the microtiter plate contained in the assay and allowed to incubate at room temperature overnight. Finally the wells were washed 3 times with an inhibin washing buffer.
The content of the alkaline phosphatase-conjugated antibody against human inhibin-B contained in the assay was taken up in 6 ml of assay diluent, and 0.05 ml of this solution were pipetted into the wells and incubated for 3 hours at room temperature. […]

[1] = tested on: epididymal and prostatic 5α-reductase; details: Monsalve 1977; Starka 1989; cited from earlier work
FSH levels in the plasma = details: depending on its dose; Bicikova 1993; cited from earlier work

Compound	inhibin-B secretion after adding steroids from natural sources (Sertoli cells; Sertoli cell culture)	inhibin-B levels expressed from the culture supernatant as compared to the control tests (Sertoli cells; Sertoli cell culture, incubation time of 44 and 52 hours, FIG. 2 (EpiT 1 uM))	increase of inhibin-B levels: concentration range of particularly striking effect (Sertoli cells; epitestosterone concentrations in the range from 10 nM to 1 pM)	inhibition of epididymal and prostatic 5α-reductase [1]	effect on FSH levels in the plasma (FSH levels in the plasma)
C[C@]12CCC(=O)C[C@@H]1CC[C@@H]1[C@@H]2CC[C@]2(C)[C@@H](O)CC[C@@H]12 [dihydrotestosterone]	not influenced	–	–	–	–
C[C@]12CC[C@H]3[C@@H](CCC4=CC(=O)CC[C@@]43C)[C@@H]1CC[C@@H]2O [testosterone]	not influenced	–	–	–	–
CC(=O)[C@H]1CC[C@H]2[C@@H]3CCC4=CC(=O)CC[C@]4(C)[C@H]3CC[C@]12C [progesterone]	not influenced	–	–	–	–
C[C@]12CC[C@H]3[C@@H](CCC4=CC(=O)CC[C@@]43C)[C@@H]1CC[C@H]2O [17α-hydroxy-4-androstene-3-one]	–	significantly increased	particularly striking	inhibits	either an inhibiting or an increasing effect
